According to the supplement of paper PMC13380429:

Tests used:
A549-ACE2 = experiment: drug-induced phospholipidosis relative to tamoxifen; higher = more phospholipidosis
U2OS [1] = experiment: cell viability relative to DMSO; higher = less toxic; settings: 72 h
Vero E6 [2] = experiment: as above; settings: 72 h
Calu-3 [3] = experiment: as above; settings: 72 h
Caco-2 [4] = experiment: as above; settings: 72 h
HepG2 [5] = experiment: as above; settings: 72 h
[6] = tested on: A549-ACE2 infected with SARS-CoV-2; experiment: morphology score (similarity to uninfected cells); higher = more like uninfected cells; settings: 24 h
[7] = tested on: A549-ACE2 infected with SARS-CoV-2; experiment: SARS-CoV-2 infection rate relative to DMSO; higher = more infection; settings: 24 h
[8] = tested on: A549-ACE2 infected with SARS-CoV-2; experiment: cell count relative to DMSO; higher = less toxic; settings: 24 h
U2OS [9] = experiment: drug sensitivity score (DSS) for viability; higher = more toxic; extreme values may be limits of the assay; settings: 72 h
Vero E6 [10] = experiment: as above; settings: 72 h
Calu-3 [11] = experiment: as above; settings: 72 h
Caco-2 [12] = experiment: as above; settings: 72 h
HepG2 [13] = experiment: as above; settings: 72 h
U2OS [14] = experiment: relative viability EC50 (midpoint between 100% and the lowest measured viability); higher = less toxic; settings: 72 h
Vero E6 [15] = experiment: as above; settings: 72 h
Calu-3 [16] = experiment: as above; settings: 72 h
Caco-2 [17] = experiment: as above; settings: 72 h
HepG2 [18] = experiment: as above; settings: 72 h

C=C1C(=O)O[C@@H]2[C@H]3C(C)=CC[C@@]34O[C@@]4(C)CC[C@@H]12 [arglabin]
drug-induced phospholipidosis [%], A549-ACE2
Settings | 0.3 µM | 0.833333 µM | 3.33333 µM | 6.66667 µM | 10 µM | 30 µM
24 h | 2.94 | -0.34 | 2.52 | 0.97 | 8.21 | -1.1
48 h | 2.9 | 0.06 | 1.52 | 0.03 | 4.18 | –
72 h | 2.96 | -0.707 | 0.896 | 0.278 | 0.729 | –

Settings | SARS-CoV-2 infection rate, [7] [%] | cell count, [8] [%] | cell viability, Caco-2 [4] [%] | cell viability, Calu-3 [3] [%] | cell viability, HepG2 [5] [%] | cell viability, U2OS [1] [%] | cell viability, Vero E6 [2] [%] | morphology score, [6]
1 nM | – | – | 91.6 | 90.2 | 96.1 | 97.1 | 110 | –
10 nM | – | – | 97.8 | 99.8 | 92.2 | 102 | 99.2 | –
100 nM | – | – | 100 | 88.3 | 96.7 | 100 | 110 | –
0.3 µM | 105 | 96 | – | – | – | – | – | 0.02
1000 nM | – | – | 104 | 105 | 98.2 | 105 | 103 | –
3 µM | 94 | 100 | – | – | – | – | – | 0.01
10000 nM | – | – | 58.2 | 68 | 56.1 | 76.5 | 104 | –
10 µM | 95 | 78 | – | – | – | – | – | -0.15
30 µM | 33 | 36 | – | – | – | – | – | 0.3

Settings | drug sensitivity score | relative viability EC50 [µM]
Caco-2 [12] | 1.8 | –
Calu-3 [11] | 1.2 | –
HepG2 [13] | 2.5 | –
U2OS [9] | 0.6 | –
U2OS [14] | – | > 10
Vero E6 [10] | 0 | –
Vero E6 [15] | – | > 10

O=S(=O)(c1cccc2cnccc12)N1CCCNCC1 [fasudil]
[6]
Settings | morphology score
0.3 µM | 0.21
3 µM | 0.17
10 µM | 0.3
30 µM | 0.09

Settings | drug sensitivity score
Caco-2 [12] | 0
Calu-3 [11] | 0
HepG2 [13] | 0.7
U2OS [9] | 0
Vero E6 [10] | 0

NC(=O)CN1CCCC1=O [piracetam]
cell viability [%]
Settings | Caco-2 [4] | Calu-3 [3] | HepG2 [5] | U2OS [1] | Vero E6 [2]
1 nM | 102 | 110 | 92.1 | 100 | 93.3
10 nM | 91.2 | 97.7 | 103 | 102 | 98.3
100 nM | 98.7 | 112 | 98 | 100 | 91.7
1000 nM | 96.6 | 109 | 98.5 | 97.7 | 93.3
10000 nM | 102 | 97.9 | 105 | 102 | 92

Settings | drug sensitivity score | relative viability EC50 [µM]
Caco-2 [12] | 0 | –
Caco-2 [17] | – | > 10
Calu-3 [11] | 0 | –
Calu-3 [16] | – | > 10
HepG2 [13] | 0 | –
HepG2 [18] | – | > 10
U2OS [9] | 0 | –
U2OS [14] | – | > 10
Vero E6 [10] | 0 | –
Vero E6 [15] | – | > 10

CC12CCC(C(=O)N(CCCCN3CCN(c4ccccn4)CC3)C1=O)C2(C)C (centres undefined) [piricapiron]
cell viability [%]
Settings | Caco-2 [4] | Calu-3 [3] | HepG2 [5] | U2OS [1] | Vero E6 [2]
1 nM | 87.3 | 100 | 106 | 101 | 97.2
10 nM | 99.7 | 105 | 101 | 103 | 99.8
100 nM | 96.5 | 101 | 101 | 99.1 | 101
1000 nM | 98.1 | 93.2 | 102 | 101 | 93.5
10000 nM | 93 | 85.9 | 97.6 | 95.6 | 104

Settings | drug sensitivity score | relative viability EC50 [µM]
Caco-2 [12] | 0 | –
Caco-2 [17] | – | > 10
Calu-3 [11] | 0.6 | –
Calu-3 [16] | – | > 10
HepG2 [13] | 0 | –
HepG2 [18] | – | > 10
U2OS [9] | 0 | –
U2OS [14] | – | > 10
Vero E6 [10] | 0 | –
Vero E6 [15] | – | > 10

Cc1c(C(=O)NN2CCCCC2)nn(-c2ccc(Cl)cc2Cl)c1-c1ccc(Cl)cc1 [rimonabant]
cell viability [%]
Settings | Caco-2 [4] | Calu-3 [3] | HepG2 [5] | U2OS [1] | Vero E6 [2]
1 nM | 98.7 | 101 | 97.6 | 95.6 | 92.4
10 nM | 91.3 | 93.6 | 94.1 | 95.8 | 95
100 nM | 97.7 | 89.1 | 105 | 98.1 | 88
1000 nM | 90.5 | 96.8 | 103 | 95.4 | 93.5
10000 nM | 81.1 | 99.2 | 88.3 | 92.7 | 101

Settings | drug sensitivity score | relative viability EC50 [µM]
Caco-2 [12] | 0.8 | –
Caco-2 [17] | – | > 10
Calu-3 [11] | 0 | –
Calu-3 [16] | – | > 10
HepG2 [13] | 0 | –
HepG2 [18] | – | > 10
U2OS [9] | 0 | –
U2OS [14] | – | > 10
Vero E6 [10] | 0 | –
Vero E6 [15] | – | > 10

CCCN(CCc1cccs1)[C@H]1CCc2c(O)cccc2C1 [rotigotine]
cell viability [%]
Settings | Caco-2 [4] | Calu-3 [3] | HepG2 [5] | U2OS [1] | Vero E6 [2]
1 nM | 98.7 | 105 | 94.1 | 95 | 93.4
10 nM | 95.7 | 100 | 91.7 | 98 | 97
100 nM | 103 | 103 | 87 | 98.4 | 90.1
1000 nM | 101 | 100 | 107 | 97 | 98.5
10000 nM | 103 | 99.6 | 102 | 96.6 | 98.7

Settings | drug sensitivity score | relative viability EC50 [µM]
Caco-2 [12] | 0 | –
Caco-2 [17] | – | > 10
Calu-3 [11] | 0 | –
Calu-3 [16] | – | > 10
HepG2 [13] | 0 | –
HepG2 [18] | – | > 10
U2OS [9] | 0 | –
U2OS [14] | – | > 10
Vero E6 [10] | 0 | –
Vero E6 [15] | – | > 10

CC(=O)OCC(=O)NCCCOc1cccc(CN2CCCCC2)c1 [roxatidine-acetate]
cell viability [%]
Settings | Caco-2 [4] | Calu-3 [3] | HepG2 [5] | U2OS [1] | Vero E6 [2]
1 nM | 103 | 107 | 94.3 | 96 | 106
10 nM | 91.5 | 111 | 107 | 95 | 106
100 nM | 97.1 | 103 | 95.5 | 98.7 | 99.1
1000 nM | 101 | 99.5 | 95.4 | 93.9 | 103
10000 nM | 93.9 | 99.8 | 91.1 | 97.6 | 99.2

Settings | drug sensitivity score | relative viability EC50 [µM]
Caco-2 [12] | 0 | –
Caco-2 [17] | – | > 10
Calu-3 [11] | 0 | –
Calu-3 [16] | – | > 10
HepG2 [13] | 0 | –
HepG2 [18] | – | > 10
U2OS [9] | 0 | –
U2OS [14] | – | > 10
Vero E6 [10] | 0 | –
Vero E6 [15] | – | > 10
